Assay results from PMC9221509, “Discovery of a Novel Antimicrobial Peptide, Temporin-PKE, from the Skin Secretion of Pelophylax kl. esculentus, and Evaluation of Its Structure-Activity Relationships” (Biomolecules, 2022).
In brackets after ≈: the same amount, converted by molar mass. Like-named read-outs stand apart in the source and are kept apart here. Non-standard residues stand in square brackets, D forms with d. Residues, ends and D or L forms follow the SMILES beside them. No end group written: not given here.

Assays:
[1] = test system: S. aureus (ATCC 6538); experiment: microbe, parasite or virus in culture; type: cell-based, Staphylococcus aureus; settings: for MBC: ATCC 6538, 18 h; for MIC: ATCC 6538, 24 h
Procedure: (§1) The antimicrobial activities of peptides were evaluated against the Gram-positive bacteria, S. aureus (ATCC 6538), methicillin-resistant Staphylococcus aureus (MRSA) (NCTC 12493), Enterococcus faecalis (E. faecalis) (NCTC 12697); the Gram-negative bacteria, E. coli (ATCC CRM 8739), Klebsiella pneumoniae (K. pneumoniae) (ATCC 43816), Pseudomonas aeruginosa (P. aeruginosa) (ATCC CRM 9027); and the yeast, Candida albicans (C. albicans) (ATCC CRM 10231). Clinical isolates of MRSA (B042 V2E1 A), E. coli (ATCC BAA-2340), K. pneumoniae (ATCC BAA-1705), and P. aeruginosa (B004 V2S2 B) were also used to determine their antimicrobial activities. The suspension of microorganisms in the logarithmic growth phase with a specific final density (Gram-negative and Gram-positive bacteria: 5 × 10^5 CFU/mL; yeast: 1 × 10^6 CFU/mL) was incubated with different peptide concentrations from 1 µM to 512 µM at 37 °C for 24 h. PBS was used as the negative control, and norfloxacin and amphotericin B were selected as the positive control for bacteria and yeast, respectively. Since the Norfloxacin had weak activities against P. aeruginosa (B004 V2S2 B) and K. pneumoniae (ATCC BAA 1705), gentamicin was used as the positive control for these two bacterial strains. The absorbance of each well was obtained using a microplate reader (EL808, Biolise BioTek, Winooski, VT, USA) set at 550 nm wavelength. The MIC value was the lowest concentration of a peptide that inhibits visible bacterial growth. Once the MIC values were determined, an aliquot from the bacterial culture exposed to the peptide at or above its MIC value was inoculated on a Mueller Hinton agar (MHA) and was incubated at 37 for 18 h. The MBC value was the lowest concentration of a peptide that kills 99.9% of bacteria.

[2] = test system: horse red blood cells; type: cell-based
Procedure: As a previous study described in detail, the haemolysis activity assays of peptides were conducted on defibrinated horse blood (TCS Biosciences Ltd., Buckingham, UK) with an erythrocyte suspension concentration of 2% (v/v). The 120 μL of peptide solution in a gradient concentration ranging from 1µM to 512 µM was mixed with the same volume of 2% horse red blood cell suspension, and the complex was incubated at 37 °C for 2 h. PBS and 0.1% Triton X-100 were chosen as the negative and positive control, respectively. After centrifugation at 900× g for 5 min, the absorbance of the supernatant was analysed using a microplate reader (EL808, Biolise BioTek, Winooski, VT, USA) set to a wavelength of 570 nm. The equation to calculate the haemolysis of the peptides is shown below: Haemolysis (%)=A−An/Ap−An×100% where A represents the absorbance of each treatment group, An represents the average absorbance of the negative control group, and Ap represents the average absorbance of the positive control group.

[3] = test system: HaCaT cells; type: cell-based, human; settings: 24 h
Procedure: The cytotoxicity of the peptides against the human epidermal keratinocyte line, HaCaT, was tested using the MTT cell viability assay as described in a previous study. The 100 µL of the cell suspension in a complete DMEM medium with a density of 10,000 cells/mL was seeded in a 96-well plate and incubated overnight at 37 °C in a humidified 5% CO2 atmosphere. After 4 h of starvation in a serum-free medium, 100 μL of serial dilutions (from 10^−9 M to 10^−4 M) of temporin-PKE and its analogues was added to each well, and the plate was incubated for 24 h. The serum-free medium and 0.1% Triton X-100 were used as the negative and positive control, respectively. Then, MTT solution, at a volume of 10 μL, was added to each well, and the plate was incubated for 2 h. After this, the medium was replaced by 100 μL of DMSO, and plates were put in the shaking incubator for 15 min. The absorbance of each well was measured using a microplate reader (EL808, Biolise BioTek, Winooski, VT, USA) set to a wavelength of 570 nm. The equation used to calculate the viability of the cells is shown below: Cell viability (%)=A−Ab/An−Ab×100% where A represents the absorbance of each treatment group, Ab represents the average absorbance of the wells in the blank control group (cells not exposed to the test peptide and MTT), and An represents the average absorbance of the wells in the negative control group (cells not exposed to the test peptide).

[4] = test system: P. aeruginosa (ATCC CRM 9027); experiment: microbe, parasite or virus in culture; type: cell-based, Pseudomonas aeruginosa; settings: for MBC: ATCC CRM 9027, 18 h; for MIC: ATCC CRM 9027, 24 h
Procedure: as §1

[5] = test system: P. aeruginosa (B004 V2S2 B); experiment: microbe, parasite or virus in culture; type: cell-based, Pseudomonas aeruginosa; settings: B004 V2S2 B; for MBC: 18 h; for MIC: 24 h
Procedure: as §1

[6] = test system: C. albicans (ATCC CRM 10231); experiment: organism not typed; type: cell-based, Candida albicans; settings: for MBC: ATCC CRM 10231, 18 h; for MIC: ATCC CRM 10231, 24 h
Procedure: as §1

[7] = test system: E. faecalis (NCTC 12697); experiment: microbe, parasite or virus in culture; type: cell-based, Enterococcus faecalis; settings: for MBC: NCTC 12697, 18 h; for MIC: NCTC 12697, 24 h
Procedure: as §1

[8] = test system: E. coli (ATCC CRM 8739); experiment: microbe, parasite or virus in culture; type: cell-based, Escherichia coli; settings: for MBC: ATCC CRM 8739, 18 h; for MIC: ATCC CRM 8739, 24 h
Procedure: as §1

[9] = test system: E. coli (ATCC BAA-2340); experiment: microbe, parasite or virus in culture; type: cell-based, Escherichia coli; settings: for MBC: ATCC BAA-2340, 18 h; for MIC: ATCC BAA-2340, 24 h
Procedure: as §1

Molecule | MBC [1] | MIC [1] | HC50 ([2]; red cells of horse, 2 h) | IC50 [3] | MBC [5] | MIC [5] | MBC [7] | MIC [7] | MBC [8] | MIC [8] | MBC ([9]; read-out: MBC) | MIC ([9]; read-out: MIC) | MBC ([4]; read-out: MBC) | MIC ([4]; read-out: MIC) | MBC ([6]; read-out: MBC) | also measured
FLPKIIGKLSSKLPKIF-NH2 [Temporin-PKE-4K] | 32 µM | 32 µM | 1671 µM | 251 µM | 32 µM | 32 µM | 32 µM | 32 µM | 4 µM | 4 µM | 64 µM | 32 µM |  |  |  | HC50 [2]: 1671 µM; MBC [4]: 64 µM; MIC [4]: 64 µM; MBC [6]: 64 µM; MIC [6]: 64 µM
FLPLIIGKLSSLLPKIF-NH2 [Temporin-PKE-2K] | 2 µM | 2 µM | 19.87 µM | 9.04 µM | 32 µM | 32 µM | 2 µM | 2 µM | 4 µM | 4 µM |  |  | 256 µM | 128 µM | >512 µM | HC50 relative to that of temporin-PKE [2]: 3 fold; MIC ([6]; read-out: MIC): >512 µM; MBC [9]: 8 µM; MIC [9]: 8 µM
CC[C@@H](C)[C@@H](NC(=O)[C@H](CCCCN)NC(=O)[C@@H]1CCCN1C(=O)[C@H](CC(C)C)NC(=O)[C@H](CC(C)C)NC(=O)[C@H](CO)NC(=O)[C@H](CO)NC(=O)[C@H](CC(C)C)NC(=O)[C@H](C)NC(=O)CNC(=O)[C@H](NC(=O)[C@H](NC(=O)[C@H](CC(C)C)NC(=O)[C@@H]1CCCN1C(=O)[C@H](CC(C)C)NC(=O)[C@@H](N)Cc1ccccc1)[C@H](C)CC)[C@H](C)CC)C(=O)N[C@@H](Cc1ccccc1)C(N)=O [Temporin-PKE-3i] (H-FLPL[dI][dI]GALSSLLPK[dI]F-NH2) | 32 µM (≈ 58.9 µg/mL) | 32 µM (≈ 58.9 µg/mL) | 64.0 µM | 497 µM |  |  | 128 µM (≈ 236 µg/mL) | 128 µM (≈ 236 µg/mL) |  |  | >512 µM | >512 µM | >512 µM | >512 µM | 256 µM (≈ 471 µg/mL) | MBC ([5]; read-out: MBC): >512 µM; MIC ([5]; read-out: MIC): >512 µM; MBC ([8]; read-out: MBC): >512 µM; MIC ([8]; read-out: MIC): >512 µM
